Legend:
[1] = test system: primary human tubular epithelial cell (HTEC); assay: SA β Gal staining at pH6 in primary tubular epithelial cultures as a measure of senescence, with or without H2O2; format: cell-based; conditions: 10 ng/ml tacrolimus (FK); cells challenged with oxidant H2O2 (75 μM); FIG. 3
Method: HTEC culture. Primary HTEC cultures were grown at 37° C. 5% CO2 in DMEM/Glutamax-1/+ pyridoxine medium (Life technologies) plus […] ml^−1 Penstrep. Cells were stained for SA β Gal activity as described in Joosten et al 2003.
Building upon the rodent observations, the inventor has established a primary human tubular epithelial cell (HTEC) in vitro system to model and evaluate premature human renal senescence. […] This is shown in FIG. 3, which illustrates SA β Gal staining at pH6 in primary tubular epithelial cultures as a measure of senescence.
Cultures were grown ±100 ng/ml cyclosporin (cyc) or 10 ng/ml tacrolimus (FK) and evaluated with or without oxidising 75 μM H2O2 treatment.
This has profound implications for transplant outcome and current clinical practice.

[2] = patients treated after cadaveric renal transplantation; result not always reproducible; cited from earlier work

Row | Molecule | effect on oxidant stress, judged by SA β Gal staining at pH6 [1] | 1 and 4 year graft survival rate [2] | first acute rejection episodes [2]
1 | C=CC[C@@H]1/C=C(\C)C[C@H](C)C[C@H](OC)[C@H]2O[C@@](O)(C(=O)C(=O)N3CCCC[C@H]3C(=O)O[C@H](/C(C)=C/[C@@H]3CC[C@@H](O)[C@H](OC)C3)[C@H](C)[C@@H](O)CC1=O)[C@H](C)C[C@@H]2OC [tacrolimus] | protect against the effects of oxidant stress |  | 
2 | superoxide dismutase |  | significantly improved | reduction
